From US11708344B2, “Flavone derivatives for the treatment and prophylaxis of hepatitis B virus disease” (Hoffmann-La Roche Inc., priority 2018, dated 2023)

These molecules were tested on HBeAg (surrogate marker for cccDNA) in HepDES19 cells (assay: Engineered HepDES19 primary screen assay (HBeAg ELISA)). Conditions: HepDES19 cells, 5 days compound incubation, HBeAg ELISA; read-out: IC50 (HBeAg level, HepDES19 primary screen assay).
Type: cell-based, HBV
Description: The assay was employed to screen for novel cccDNA inhibitors. HepDES19 is a cccDNA-producing cell line. In this cell line, HBeAg in the cell culture supernatant as surrogate marker, as HBeAg production depends on cccDNA level and activity. HepDES19 is an engineered cell line which contains a 1.1 unit length HBV genome, and pgRNA transcription from the transgene is controlled by Tetracycline (Tet). In the absence of Tet, pgRNA transcription will be induced, but HBV e antigen (HBeAg) could not be produced from this pgRNA due to very short leader sequence before the HBeAg start codon and the start codon is disrupted. Only after cccDNA is formed, the missing leader sequence and start codon mutation would be restored from the 3′-terminal redundancy of pgRNA, and then HBeAg could be synthesized. Therefore, HBeAg could be used as a surrogate marker for cccDNA (Zhou, T. et al., Antiviral Res. (2006), 72(2), 116-124; Guo, H. et al., J. Virol. (2007), 81(22), 12472-12484).
HepDES19 cells were seeded at 2×10^6 cells per T150 flask and cultured with the culture medium (Dulbecco's Modified Eagle Medium: Nutrient Mixture F-12 [DMEM-F12, Gibco Cat. 11320-82], 10% Fetal Bovine Serum [FBS, Clontech Cat. 631101], 0.1 mM Non-Essential Amino Acids Solution [NEAA, Gibco Cat. 11140-050], 50 μg/mL Penicillin-Streptomycin [PS, Invitrogen Cat. 15140-163], 500 μg/mL Geneticin [G418, Invitrogen Cat. 10131-027]) containing 3 μg/mL Tet (Sigma, Cat. 87128) for 5 days. Cells were then seeded at 4×10^6 cells per T150 in the same culture medium as described above in the absence of Tet for 8 days. Cells were then harvested and frozen at density of 2×10^6 cells per mL. For compound testing, the frozen cells were thawed and seeded into 96-well plates at a density of 6×10^4 cells per well. At 24 hours after seeding, half log serial dilutions of compounds made with Dimethyl sulfoxide (DMSO, Sigma, Cat. D2650) were further diluted with the same culture medium as described above before they were added to the cells to reach desired final compound concentrations and 1% DMSO concentration. Plates were then incubated at 37° C. for another 5 days before measurement of HBeAg level and cell viability. […] HBeAg level were measured with enzyme-linked immunosorbent assay (ELISA) kit (Shanghai Kehua Diagnostic Medical Products Co., Ltd). Cell viability was assessed using Cell Counting Kit-8 (DonJindo, Cat. CK04-20). IC50 values were derived from the dose-response curve using 4 parameter logistic curve fit method.
The compounds of the present invention were tested for their capacity to inhibit extracellular HBeAg level as described herein.
With `O=c1cc(-c2ccc(Br)cc2OCCO[C@H]2C[C@H](C(=O)O)C2)oc2c(Cl)ccc(C(F)(F)F)c12` [Example C049-B] the IC50 was 103 nM.

Same assay, conditions: Hepatitis B virus, HepDES19, 120 h, read-out: IC50 (HBeAg level, HepDES19 primary screen assay), HepDES19 cells, 5 days compound incubation, HBeAg ELISA
`O=C(O)CCOc1cc(C(F)(F)F)ccc1-c1cc(=O)c2c(O)ccc(Cl)c2o1` [Example A045, 3-[2-(8-chloro-5-hydroxy-4-oxo-chromen-2-yl)-5-(trifluoromethyl)phenoxy]propanoic acid] was tested, and the IC50 was 2030 nM.
`O=C(O)[C@@H]1C[C@H](Oc2cc(Br)ccc2-c2cc(=O)c3cccc(Cl)c3o2)CN1` [Example B075, (2S,4S)-4-[5-bromo-2-(8-chloro-4-oxo-chromen-2-yl)phenoxy]pyrrolidine-2-carboxylic acid] was tested, and the IC50 was 774 nM.
For `O=C(O)[C@@H]1C[C@H](Oc2cc(OC(F)(F)F)ccc2-c2cc(=O)c3cccc(Cl)c3o2)CN1S(=O)(=O)c1ccccc1` [Example B085, (2S,4S)-1-(benzenesulfonyl)-4-[2-(8-chloro-4-oxo-chromen-2-yl)-5-(trifluoromethoxy)phenoxy]pyrrolidine-2-carboxylic acid], the IC50 was 4570 nM.
In the case of `COc1cc(OCCO[C@H]2C[C@H](C(=O)O)C2)c(-c2cc(=O)c3cccc(Cl)c3o2)cc1C` [Example C041-B, Trans-3-[2-[2-(8-chloro-4-oxo-chromen-2-yl)-5-methoxy-4-methyl-phenoxy]ethoxy]cyclobutanecarboxylic acid], the IC50 is reported as 9640 nM.
`O=C1Cc2cc(OCCO[C@H]3C[C@@H](C(=O)O)C3)c(-c3cc(=O)c4cccc(Cl)c4o3)cc2N1` [Example C091, Cis-3-[2-[6-(8-chloro-4-oxo-chromen-2-yl)-2-oxo-indolin-5-yl]oxyethoxy]cyclobutanecarboxylic acid] gave an IC50 of 418 nM.
Molecule `O=C1CCCN1c1ccc(-c2cc(=O)c3cccc(Cl)c3o2)c(OCCO[C@H]2C[C@H](C(=O)O)C2)c1` [Example C063-B, Trans-3-[2-[2-(8-chloro-4-oxo-chromen-2-yl)-5-(2-oxopyrrolidin-1-yl)phenoxy]ethoxy]cyclobutanecarboxylic acid] has an IC50 of 14900 nM.
`CCOc1ccc(-c2cc(=O)c3c(O)ccc(Cl)c3o2)c(O[C@H]2C[C@@H](C(=O)O)C2)c1` [Example B039-A, Cis-3-[2-(8-chloro-5-hydroxy-4-oxo-chromen-2-yl)-5-ethoxy-phenoxy]cyclobutanecarboxylic acid] showed an IC50 of 6760 nM.
`O=C(O)CCOc1cc(Br)c(OC(F)(F)F)cc1-c1cc(=O)c2cccc(Cl)c2o1` [Example A014, 3-[5-bromo-2-(8-chloro-4-oxo-chromen-2-yl)-4-(trifluoromethoxy)phenoxy]propanoic acid] was tested, and the IC50 was 3220 nM.
`CCNS(=O)(=O)N[C@@H](COc1cc(C(F)(F)F)ccc1-c1cc(=O)c2cccc(Cl)c2o1)C(=O)OC` [Example A098, methyl (2S)-3-[2-(8-chloro-4-oxo-chromen-2-yl)-5-(trifluoromethyl)phenoxy]-2-(ethylsulfamoylamino)propanoate] gave an IC50 of 36 nM.
`COc1ccc(OC[C@H]2C[C@@H](C(=O)O)C2)c(-c2cc(=O)c3cccc(Cl)c3o2)c1` [Example B027-A] showed an IC50 of 2470 nM.
`CSc1ccc(-c2cc(=O)c3cccc(Cl)c3o2)c(OCCO[C@H]2C[C@@H](C(=O)O)C2)c1` [Example C064-A, Cis-3-[2-[2-(8-chloro-4-oxo-chromen-2-yl)-5-methylsulfanyl-phenoxy]ethoxy]cyclobutanecarboxylic acid] was tested, and the IC50 was 1940 nM.
Work on `CS(=O)(=O)NC(=O)[C@H]1C[C@H](OCCOc2cc(Br)ccc2-c2cc(=O)c3cccc(Cl)c3o2)C1` [Example C123, Trans-3-[2-[5-bromo-2-(8-chloro-4-oxo-chromen-2-yl)phenoxy]ethoxy]-N-methylsulfonyl-cyclobutanecarboxamide] yielded an IC50 of 6530 nM.
Molecule `O=C(O)COc1cc(OC(F)(F)F)ccc1-c1cc(=O)c2cccc(Cl)c2o1` [Example A048, 2-[2-(8-chloro-4-oxo-chromen-2-yl)-5-(trifluoromethoxy)phenoxy]acetic acid] has an IC50 of 9380 nM.
For `O=C(O)c1cccc(OCCOc2cc(Br)ccc2-c2cc(=O)c3cccc(Cl)c3o2)c1` [Example C108, 3-[2-[5-bromo-2-(8-chloro-4-oxo-chromen-2-yl)phenoxy]ethoxy]benzoic acid], the IC50 was 1250 nM.
Work on `O=C(O)c1ccc(OCCOc2cc(Br)ccc2-c2cc(=O)c3cccc(Cl)c3o2)cc1` [Example C107, 4-[2-[5-bromo-2-(8-chloro-4-oxo-chromen-2-yl)phenoxy]ethoxy]benzoic acid] yielded an IC50 of 991 nM.
For `CS(=O)(=O)NC(=O)C1CCC(OCCCOc2cc(C(F)(F)F)ccc2-c2cc(=O)c3cccc(Cl)c3o2)C1` (centres unmarked) [Example C124, 3-[3-[2-(8-chloro-4-oxo-chromen-2-yl)-5-(trifluoromethyl)phenoxy]propoxy]-N-methylsulfonyl-cyclopentanecarboxamide], the IC50 was 2840 nM.
Molecule `O=C(O)CCCCCCOc1cc(C(F)(F)F)ccc1-c1cc(=O)c2cccc(Cl)c2o1` [Example A066, 7-[2-(8-chloro-4-oxo-chromen-2-yl)-5-(trifluoromethyl)phenoxy]heptanoic acid] has an IC50 of 2440 nM.
Molecule `CC(C)c1ccc(-c2cc(=O)c3cccc(Cl)c3o2)c(O[C@H]2C[C@@H](C(=O)O)C2)c1` [Example B020-A, Cis-3-[2-(8-chloro-4-oxo-chromen-2-yl)-5-isopropyl-phenoxy]cyclobutanecarboxylic acid] has an IC50 of 2840 nM.
Work on `Cc1ccc2c(=O)cc(-c3ccccc3OCCO[C@H]3C[C@@H](C(=O)O)C3)oc2c1Cl` [Example C029-A, Cis-3-[2-[2-(8-chloro-7-methyl-4-oxo-chromen-2-yl)phenoxy]ethoxy]cyclobutanecarboxylic acid] yielded an IC50 of 3360 nM.
`O=c1cc(-c2cc(Br)ccc2OCCO[C@H]2C[C@H](C(=O)O)C2)oc2c(Cl)cc(F)cc12` [Example C053-B, Trans-3-[2-[4-bromo-2-(8-chloro-6-fluoro-4-oxo-chromen-2-yl)phenoxy]ethoxy]cyclobutanecarboxylic acid] was tested, and the IC50 was 5590 nM.
`COc1ccc(-c2cc(=O)c3cccc(Cl)c3o2)c(O[C@H]2C[C@H](C(=O)O)C2)c1` [Example B011-B, Trans-3-[2-(8-chloro-4-oxo-chromen-2-yl)-5-methoxy-phenoxy]cyclobutanecarboxylic acid] showed an IC50 of 3480 nM.
With `O=c1cc(-c2ccc(C3CC3)cc2O[C@H]2C[C@H](C(=O)O)C2)oc2c(Cl)cccc12` [Example B035-B, trans-3-[2-(8-chloro-4-oxo-chromen-2-yl)-5-cyclopropyl-phenoxy]cyclobutanecarboxylic acid] the IC50 was 2020 nM.
In the case of `CCOc1ccc(-c2cc(=O)c3ccc(C(F)(F)F)c(Cl)c3o2)c(OCCOC2CC(C(=O)O)C2)c1` (centres unmarked) [Example C097, 3-[2-[2-[8-chloro-4-oxo-7-(trifluoromethyl)chromen-2-yl]-5-ethoxy-phenoxy]ethoxy]cyclobutanecarboxylic acid], the IC50 is reported as 1310 nM.
With `CS(=O)(=O)C1CCN(C(=O)COc2cc(C(F)(F)F)ccc2-c2cc(=O)c3cccc(Cl)c3o2)C1` (centres unmarked) [Example A087, 8-chloro-2-[2-[2-(3-methylsulfonylpyrrolidin-1-yl)-2-oxo-ethoxy]-4-(trifluoromethyl)phenyl]chromen-4-one] the IC50 was 4980 nM.
With `O=c1cc(-c2ccc(Br)cc2OCCO[C@H]2C[C@@H](C(=O)O)C2)oc2c(Cl)c(C(F)(F)F)ccc12` [Example C048-A, Cis-3-[2-[5-bromo-2-[8-chloro-4-oxo-7-(trifluoromethyl)chromen-2-yl]phenoxy]ethoxy]cyclobutanecarboxylic acid] the IC50 was 5120 nM.
`Cc1cc(-c2cc(=O)c3c(O)ccc(Cl)c3o2)c(O[C@H]2C[C@@H](C(=O)O)C2)cc1Br` [Example B040-A, cis-3-[5-bromo-2-(8-chloro-5-hydroxy-4-oxo-chromen-2-yl)-4-methyl-phenoxy]cyclobutanecarboxylic acid] gave an IC50 of 302 nM.
For `O=c1cc(-c2ccc(Br)cc2O[C@H]2C[C@H](C(=O)O)C2)oc2c(Cl)ccc(O)c12` [Example B036-B, trans-3-[5-bromo-2-(8-chloro-5-hydroxy-4-oxo-chromen-2-yl)phenoxy]cyclobutanecarboxylic acid], the IC50 was 407 nM.
Work on `Cc1ccc(-c2cc(=O)c3c(O)ccc(Cl)c3o2)c(O[C@H]2C[C@H](C(=O)O)C2)c1` [Example B037-B, Trans-3-[2-(8-chloro-5-hydroxy-4-oxo-chromen-2-yl)-5-methyl-phenoxy]cyclobutanecarboxylic acid] yielded an IC50 of 149 nM.
